Like-named read-outs stand apart in the source and are kept apart here.
System: human vascular endothelial cell lines
Assay: Inhibition of radiation-induced endothelial cell transition (EndMT), phalloidin immunofluorescence staining
Assay type: cell-based
Conditions: 10 uM test substance 1 hour before 10 Gy irradiation, 72 hours after irradiation, relative ratio with IR group (10 Gy alone) as 100%; for activity at 10 µM: Homo sapiens, Endothelial cell, light or radiation study
Procedure: Test substances (Examples 1 to 45) were treated with a 10 mM DMSO solution at a ratio of 1 µL per 1 mL of cell culture medium to a final concentration of 10 uM, and the test substances were treated 1 hour before irradiation on human vascular endothelial cell lines (Promocell, Germany), and then, it was irradiated at an intensity of 10 Gy. 72 hours after irradiation, the human vascular endothelial cell lines were fixed with 10% formalin, and the experiment was conducted according to the manufacturer's method using phalloidin (Invitrogen, USA) to confirm the cytoskeleton filaments that increase during fibrosis. Phalloidin is a protein that binds to the actin of cytoskeleton filaments, and phalloidin conjugated with FITC fluorescent substance made the cytoskeleton filaments appear green when observed under a microscope.
After treatment with the test substance, the area, length and density of phalloidin were measured by using a confocal microscope, and the relative ratio was expressed with the irradiated group (IR group) that was irradiated with 10 Gy alone as 100% (Table 1).

| Compound | activity at 10 µM (read-out: Palloidin Area) [%] | activity at 10 µM (read-out: Palloidin Intensity) [%] | activity at 10 µM (read-out: Palloidin Length) [%] | Palloidin Length |
| --- | --- | --- | --- | --- |
| O[C@@H]1[C@H](O)CS[C@H]1n1cnc2c(N[C@@H]3CCc4ccc(Br)cc43)nc(Cl)nc21 [Example 21, (2R,3R,4S)-2-[2-chloro-6-[[(1R)-6-bromoindan-1-yl]amino]purin-9-yl]tetrahydrothiophene-3,4-diol] | 20 to 50 | 20 to 50 | 20 to 50 | – |
| Cc1cccc2c1CC[C@H]2Nc1nc(Cl)nc2c1ncn2[C@@H]1SC[C@@H](O)[C@H]1O [Example 22, (2R,3R,4S)-2-[2-chloro-6-[[(1R)-4-methylindan-1-yl]amino]purin-9-yl]tetrahydrothiophene-3,4-diol] | < 20 | < 20 | – | + + + + |
| NC(=O)c1cccc2c1CC[C@H]2Nc1nc(Cl)nc2c1ncn2[C@@H]1SC[C@@H](O)[C@H]1O [Example 25, (R)-1-((2-chloro-9-((2R,3R,4S)-3,4-dihydroxytetrahydrothiophen-2-yl)-9H-purin-6-yl)amino)-2,3-dihydro-1H-indene-4-carboxamide] | > 80 | > 80 | > 80 | – |
| O[C@@H]1[C@H](O)CS[C@H]1n1cnc2c(N[C@@H]3CCc4cc(F)ccc43)nc(Cl)nc21 [Example 16, (2R,3R,4S)-2-[2-chloro-6-[[(1R)-5-fluoroindan-1-yl]amino]purin-9-yl]tetrahydrothiophene-3,4-diol] | < 20 | < 20 | < 20 | – |
| O[C@@H]1[C@H](O)CS[C@H]1n1cnc2c(NC3Cc4ccccc4C3)nc(Cl)nc21 [Example 7, (2R,3R,4S)-2-[2-chloro-6-(indan-2-ylamino)purin-9-yl]tetrahydrothiophene-3,4-diol] | > 80 | > 80 | > 80 | – |
| O[C@@H]1[C@H](O)CS[C@H]1n1cnc2c(NC3CCCc4ccccc43)nc(Cl)nc21 (stereo partly drawn) [Example 38, (2R,3R,4S)-2-(2-chloro-6-((1,2,3,4-tetrahydronaphthalen-1-yl)amino)-9H-purin-9-yl)tetrahydrothiophene-3,4-diol] | > 80 | > 80 | > 80 | – |
| O=C(O)c1cccc2c1CC[C@H]2Nc1nc(Cl)nc2c1ncn2[C@@H]1SC[C@@H](O)[C@H]1O [Example 32, (R)-1-((2-chloro-9-((2R,3R,4S)-3,4-dihydroxytetrahydrothiophen-2-yl)-9H-purin-6-yl)amino)-2,3-dihydro-1H-indene-4-carboxylic acid] | > 80 | > 80 | > 80 | – |
| O[C@@H]1[C@H](O)CS[C@H]1n1cnc2c(N[C@@H]3CCc4cccc(Br)c43)nc(Cl)nc21 [Example 26, (2R,3R,4S)-2-[2-chloro-6-[[(1R)-7-bromoindan-1-yl]amino]purin-9-yl]tetrahydrothiophene-3,4-diol] | 20 to 50 | 50 to 80 | 50 to 80 | – |
| CC#Cc1nc(N[C@@H]2CCc3ccccc32)c2ncn([C@@H]3SC[C@@H](O)[C@H]3O)c2n1 [Example 1, (2R,3R,4S)-2-[6-[[(1R)-indan-1-yl]amino]-2-prop-1-ynyl-purin-9-yl]tetrahydrothiophene-3,4-diol] | 50 to 80 | 50 to 80 | > 80 | – |
| O[C@@H]1[C@H](O)CS[C@H]1n1cnc2c(NC3CCCCc4ccccc43)nc(Cl)nc21 (stereo partly drawn) [Example 42, (2R,3R,4S)-2-(2-chloro-6-((6,7,8,9-tetrahydro-5H-benzo[7]annulen-5-yl)amino)-9H-purin-9-yl)tetrahydrothiophene-3,4-diol] | > 80 | > 80 | > 80 | – |
| O[C@@H]1[C@H](O)CS[C@H]1n1cnc2c(N[C@@H]3Cc4ccccc43)nc(Cl)nc21 [Example 41, (2R,3R,4S)-2-(6-(((R)-bicyclo[4.2.0]octa-1(6),2,4-trien-7-yl)amino)-2-chloro-9H-purin-9-yl)tetrahydrothiophene-3,4-diol] | > 80 | 50 to 80 | > 80 | – |
| O[C@@H]1[C@H](O)CS[C@H]1n1cnc2c(NC3CCc4ccccc4CC3)nc(Cl)nc21 [Example 43, (2R,3R,4S)-2-(2-chloro-6-((6,7,8,9-tetrahydro-5H-benzo[7]annulen-7-yl)amino)-9H-purin-9-yl)tetrahydrothiophene-3,4-diol] | > 80 | > 80 | > 80 | – |
| O=C(O)c1ccc2c(c1)CC[C@H]2Nc1nc(Cl)nc2c1ncn2[C@@H]1SC[C@@H](O)[C@H]1O [Example 33, (R)-1-((2-chloro-9-((2R,3R,4S)-3,4-dihydroxytetrahydrothiophen-2-yl)-9H-purin-6-yl)amino)-2,3-dihydro-1H-indene-5-carboxylic acid] | > 80 | > 80 | > 80 | – |
| N#Cc1ccc2c(c1)CC[C@H]2Nc1nc(Cl)nc2c1ncn2[C@@H]1SC[C@@H](O)[C@H]1O [Example 29, (1R)-1-[[2-chloro-9-[(2R,3R,4S)-3,4-dihydroxytetrahydrothiophen-2-yl]purin-6-yl]amino]indane-5-carbonitrile] | 50 to 80 | 50 to 80 | > 80 | – |
| Cc1ccc2c(c1)CC[C@H]2Nc1nc(Cl)nc2c1ncn2[C@@H]1SC[C@@H](O)[C@H]1O [Example 27, (2R,3R,4S)-2-[2-chloro-6-[[(1R)-5-methylindan-1-yl]amino]purin-9-yl]tetrahydrothiophene-3,4-diol] | > 80 | > 80 | > 80 | – |
| COc1cccc2c1[C@H](Nc1nc(Cl)nc3c1ncn3[C@@H]1SC[C@@H](O)[C@H]1O)CC2 [Example 14, (2R,3R,4S)-2-[2-chloro-6-[[(1R)-7-methoxyindan-1-yl]amino]purin-9-yl]tetrahydrothiophene-3,4-diol] | 50 to 80 | 50 to 80 | 50 to 80 | – |
| COc1cccc2c1CC[C@H]2Nc1nc(Cl)nc2c1ncn2[C@@H]1SC[C@@H](O)[C@H]1O [Example 11, (2R,3R,4S)-2-[2-chloro-6-[[(1R)-4-methoxyindan-1-yl]amino]purin-9-yl]tetrahydrothiophene-3,4-diol] | 20 to 50 | 20 to 50 | 20 to 50 | – |
| CCC#Cc1nc(N[C@@H]2CCc3ccccc32)c2ncn([C@@H]3SC[C@@H](O)[C@H]3O)c2n1 [Example 3, (2R,3R,4S)-2-[2-but-1-ynyl-6-[[(1R)-indan-1-yl]amino]purin-9-yl]tetrahydrothiophene-3,4-diol] | > 80 | > 80 | > 80 | – |
| O[C@@H]1[C@H](O)CS[C@H]1n1cnc2c(N[C@@H]3CCCc4ccccc43)nc(Cl)nc21 [Example 39, (2R,3R,4S)-2-(2-chloro-6-(((R)-1,2,3,4-tetrahydronaphthalen-1-yl)amino)-9H-purin-9-yl)tetrahydrothiophene-3,4-diol] | > 80 | > 80 | > 80 | – |
| O[C@@H]1[C@H](O)CS[C@H]1n1cnc2c(N[C@H]3CCc4ccccc4C3)nc(Cl)nc21 [Example 36, (2R,3R,4S)-2-(2-chloro-6-(((S)-1,2,3,4-tetrahydronaphthalen-2-yl)amino)-9H-purin-9-yl)tetrahydrothiophene-3,4-diol] | > 80 | > 80 | > 80 | – |
| CCCC#Cc1nc(N[C@@H]2CCc3ccccc32)c2ncn([C@@H]3SC[C@@H](O)[C@H]3O)c2n1 [Example 5, (2R,3R,4S)-2-[6-[[(1R)-indan-1-yl]amino]-2-pent-1-ynyl-purin-9-yl]tetrahydrothiophene-3,4-diol] | 50 to 80 | 50 to 80 | 50 to 80 | – |
| CCC#Cc1nc(N[C@H]2CCc3ccccc32)c2ncn([C@@H]3SC[C@@H](O)[C@H]3O)c2n1 [Example 4, (2R,3R,4S)-2-[2-but-1-ynyl-6-[[(1S)-indan-1-yl]amino]purin-9-yl]tetrahydrothiophene-3,4-diol] | 50 to 80 | 50 to 80 | 50 to 80 | – |
| O[C@@H]1[C@H](O)CS[C@H]1n1cnc2c(N[C@H]3CCc4ccccc43)nc(Cl)nc21 [Example 10, (2R,3R,4S)-2-[2-chloro-6-[[(1S)-indan-1-yl]amino]purin-9-yl]tetrahydrothiophene-3,4-diol] | > 80 | > 80 | > 80 | – |
| O[C@@H]1[C@H](O)CS[C@H]1n1cnc2c(N[C@@H]3CCc4ccccc4C3)nc(Cl)nc21 [Example 37, (2R,3R,4S)-2-(2-chloro-6-(((R)-1,2,3,4-tetrahydronaphthalen-2-yl)amino)-9H-purin-9-yl)tetrahydrothiophene-3,4-diol] | 50 to 80 | 50 to 80 | > 80 | – |
| O[C@@H]1[C@H](O)CS[C@H]1n1cnc2c(N[C@@H]3CCc4cc(Br)ccc43)nc(Cl)nc21 [Example 20, (2R,3R,4S)-2-[2-chloro-6-[[(1R)-5-bromoindan-1-yl]amino]purin-9-yl]tetrahydrothiophene-3,4-diol] | < 20 | 20 to 50 | < 20 | – |

Source: patent publication EP4685149A1, “NOVEL COMPOUND AS ENDOTHELIAL TO MESENCHYMAL TRANSITION (ENDMT) INHIBITOR, AND PHARMACEUTICAL COMPOSITION COMPRISING SAME” (Korea Institute of Radiological & Medical Sciences, priority 2023, dated 2024)
